Experimental data from patent EP0934303B1, “COMPOUNDS USEFUL FOR INHIBITION OF FARNESYL PROTEIN TRANSFERASE” (SCHERING CORPORATION, priority 1996, dated 1998).
Where two headings read alike, the source gives them in different places.

Assays:
[1] = target: farnesyl protein transferase (Homo sapiens, UniProt P49354+P49356); assay: FPT IC50, inhibition of farnesyl protein transferase, in vitro enzyme assay (procedure of WO 95/10516); format: biochemical; conditions: one range stated for the whole list of compounds
Experimental: (§1) FPT IC50 (inhibition of farnesyl protein transferase, in vitro enzyme assay), GGPT IC50 (inhibition of geranylgeranyl protein transferase, in vitro enzyme assay) and COS Cell IC50 (Cell-Based Assay) were determined following the assay procedures described in WO 95/10516, published April 20, 1995. Cell Mat Assay, and anti-tumor activity (in vivo anti-tumor studies) could be determined by the assay procedures described in WO 95/10516. The disclosure of WO 95/10516 is incorporated herein by reference thereto.

Human tumor cells = assay: Soft Agar Assay (anchorage-independent growth, colony count after MTT staining); format: cell-based; conditions: one range stated for the whole list of compounds
Experimental: Anchorage-independent growth is a characteristic of tumorigenic cell lines. Human tumor cells are suspended in growth medium containing 0.3% agarose and an indicated concentration of a farnesyl transferase inhibitor. The solution is overlayed onto growth medium solidified with 0.6% agarose containing the same concentration of farnesyl transferase inhibitor as the top layer. After the top layer is solidified, plates are incubated for 10-16 days at 37°C under 5% CO2 to allow colony outgrowth. After incubation, the colonies are stained by overlaying the agar with a solution of MTT (3-[4,5-dimethylthiazol-2-yl]-2,5-diphenyltetrazolium bromide, Thiazolyl blue) (1 mg/mL in PBS). Colonies can be counted and the IC50's can be determined.

COS Cell = COS Cell IC50 (Cell-Based Assay, procedure of WO 95/10516); conditions: one range stated for the whole list of compounds
Experimental: as §1

[2] = target: geranylgeranyl protein transferase (Rattus norvegicus, UniProt P53610+Q04631); assay: GGPT IC50, inhibition of geranylgeranyl protein transferase, in vitro enzyme assay (procedure of WO 95/10516); format: biochemical
Experimental: as §1

[3] = H-ras, read-out: FPT IC50 (H-ras)
[4] = K-ras, read-out: FPT IC50 (K-ras)

Sequence of farnesyl protein transferase (P49356 whole entry, one chain of several): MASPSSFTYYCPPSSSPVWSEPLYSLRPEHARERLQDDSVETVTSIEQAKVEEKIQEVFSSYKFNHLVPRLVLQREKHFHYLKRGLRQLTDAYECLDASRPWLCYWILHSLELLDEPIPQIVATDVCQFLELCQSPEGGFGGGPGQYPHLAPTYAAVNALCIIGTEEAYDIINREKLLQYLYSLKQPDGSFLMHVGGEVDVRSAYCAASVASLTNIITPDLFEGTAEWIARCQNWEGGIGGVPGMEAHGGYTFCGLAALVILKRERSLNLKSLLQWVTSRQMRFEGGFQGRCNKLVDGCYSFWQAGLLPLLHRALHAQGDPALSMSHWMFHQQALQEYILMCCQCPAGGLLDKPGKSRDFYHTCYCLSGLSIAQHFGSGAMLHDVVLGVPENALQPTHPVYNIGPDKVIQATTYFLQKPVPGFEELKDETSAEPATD

IC50 [1, 3] | IC50 [1, 4] | IC50 [2] | Structure (SMILES) | IC50 (Human tumor cells) | IC50 (COS Cell)
≥ 0.8 nM | – | – | N=C(Oc1ccccc1)N1CCC(CC(=O)N2CCC(C3c4ccc(Cl)c(Br)c4CCc4cc(Br)cnc43)CC2)CC1 (racemic) [Compound 26.0] | – | –
≥ 0.8 nM | – | – | N#CN=C(Oc1ccccc1)N1CCC(CC(=O)N2CCN(C3c4ccc(Cl)cc4CCc4cc(Br)cnc43)CC2)CC1 (stereo not drawn) [Compound 2.0, PHENYL 4-[2-[4-(3-BROMO-8-CHLORO-6,11-DIHYDRO-5H-BENZO[5,6]CYCLOHEPTA[1,2-b]PYRIDIN-11-YL)-1-PIPERAZINYL]-2-OXOETHYL]-N-CYANO-1-PIPERIDINE- CARBOXIMIDATE] | – | –
≥ 0.8 nM | – | – | N#CNC(=N)N1CCC(CC(=O)N2CCN(C3c4ccc(Cl)cc4CCc4cc(Br)cnc43)CC2)CC1 (stereo not drawn) [Compound 3.0, 4-[2-[4-(3-BROMO-8-CHLORO-6,11-DIHYDRO-5H-BENZO[5,6]CYCLOHEPTA[1,2-b]PYRIDIN-11-YL)-1-PIPERAZINYL]-2-OXOETHYL]-N-CYANO-1-PIPERIDINE-CARBOXIMIDAMIDE] | – | –
≥ 0.8 nM | – | – | N=C(Oc1ccccc1)N1CCC(CC(=O)N2CCN(C3c4ccc(Cl)cc4CCc4cc(Br)cnc43)CC2)CC1 (stereo not drawn) [Compound 4.0, PHENYL 4-[2-[4-(3-BROMO-8-CHLORO-6,11-DIHYDRO-5H-BENZO[5,6]CYCLOHEPTA[1,2-b]PYRIDIN-11-YL)-1-PIPERAZINYL]-2-OXOETHYL]-1-PIPERIDINECARBOXIMIDATE] | – | –
≥ 0.8 nM | – | – | N=C(NS(N)(=O)=O)N1CCC(CC(=O)N2CCN(C3c4ccc(Cl)cc4CCc4cc(Br)cnc43)CC2)CC1 (stereo not drawn) [Compound 7.0, 4-[2-[4-(3-BROMO-8-CHLORO-6,11-DIHYDRO-5H-BENZO[5,6]CYCLOHEPTA[1,2-b]PYRIDIN-11-YL)-1-PIPERAZINYL]-2-OXOETHYL]-N-SULFAMOYL-1-PIPERIDINE-CARBOXIMIDAMIDE] | – | –
≥ 0.8 nM | – | – | NC(=O)NC(=O)N=C(Oc1ccccc1)N1CCC(CC(=O)N2CCN(C3c4ccc(Cl)cc4CCc4cc(Br)cnc43)CC2)CC1 (stereo not drawn) [Compound 16.1, PHENYL N-[[(AMINOCARBONYL)AMINO]CARBONYL]-4-[2-[4-(3-BROMO-8-CHLORO-6,11-DIHYDRO-5H-BENZO[5,6]CYCLOHEPTA-[1,2-b]PYRIDIN-11-YL)-1-PIPERAZINYL]-2-OXOETHYL]-1-PIPERIDINECARBOXIMIDATE] | – | –
≥ 0.8 nM | – | – | N=C(NC(=O)NC(N)=O)N1CCC(CC(=O)N2CCN(C3c4ccc(Cl)cc4CCc4cc(Br)cnc43)CC2)CC1 (stereo not drawn) [Compound 17.1, N-[[(AMINOCARBONYL)AMINO]CARBONYL]-4-[2-[4-(3-BROMO-8-CHLORO-6,11-DIHYDRO-5H-BENZO[5,6]CYCLOHEPTA[1,2-b]-PYRIDIN-11-YL)-1-PIPERAZINYL]-2-OXOETHYL]-1-PIPERIDINECARBOXIMIDAMIDE] | – | –
– | – | – | O=C(O)c1cncc(C(=O)N2CCC(CC(=O)N3CCC([C@H]4c5ncc(Br)cc5CCc5cc(Cl)cc(Br)c54)CC3)CC2)c1 [Compound 25.0-B] | ≥ 90 nM | ≥ 7 nM
– | – | – | Cc1noc(C)c1C(=O)N1CCC(CC(=O)N2CCC([C@H]3c4ncc(Br)cc4CCc4cc(Cl)cc(Br)c43)CC2)CC1 [Compound 27.0-B] | ≥ 90 nM | ≥ 7 nM
≥ 0.8 nM | 16 to 782 nM | – | N=C(Oc1ccccc1)N1CCC(CC(=O)N2CCC([C@H]3c4ncc(Br)cc4CCc4cc(Cl)cc(Br)c43)CC2)CC1 [Compound 27.0] | ≥ 90 nM | ≥ 12 nM
– | – | – | O=C1N[C@H](C(=O)N2CCC(CC(=O)N3CCC([C@H]4c5ncc(Br)cc5CCc5cc(Cl)cc(Br)c54)CC3)CC2)CO1 [Compound 28.0-B] | ≥ 90 nM | ≥ 7 nM
≥ 0.8 nM | 16 to 782 nM | > 9600 nM | N#CN1CCC(CC(=O)N2CCC(C3c4ccc(Cl)c(Br)c4CCc4cc(Br)cnc43)CC2)CC1 (stereo not drawn) [Compound 28.0] | – | ≥ 12 nM
– | – | – | NC(=O)c1cncc(C(=O)N2CCC(CC(=O)N3CCC([C@H]4c5ncc(Br)cc5CCc5cc(Cl)cc(Br)c54)CC3)CC2)c1 [Compound 29.0-B] | ≥ 90 nM | ≥ 7 nM
≥ 0.8 nM | – | – | N=C(N)N1CCC(CC(=O)N2CCC(C3c4ccc(Cl)c(Br)c4CCc4cc(Br)cnc43)CC2)CC1 (stereo not drawn) [Compound 30.0] | – | ≥ 12 nM
– | – | – | O=C(CC1CCN(C(=O)c2cn[nH]c2)CC1)N1CCC([C@H]2c3ncc(Br)cc3CCc3cc(Cl)cc(Br)c32)CC1 [Compound 31.0-B] | ≥ 90 nM | ≥ 7 nM
≥ 0.8 nM | 16 to 782 nM | > 7500 nM | N=C(NCc1cccnc1)N1CCC(CC(=O)N2CCC(C3c4ccc(Cl)c(Br)c4CCc4cc(Br)cnc43)CC2)CC1 (stereo not drawn) [Compound 31.0] | – | ≥ 12 nM
– | – | – | CC(=O)N1CCC(CC(=O)N2CCC([C@H]3c4ncc(Br)cc4CCc4cc(Cl)cc(Br)c43)CC2)CC1 [Compound 36.0-B] | ≥ 90 nM | ≥ 7 nM
≥ 0.8 nM | – | – | CCn1cccc1C(=O)N1CCC(CC(=O)N2CCC([C@H]3c4ncc(Br)cc4CCc4cc(Cl)cc(Br)c43)CC2)CC1 [Compound 40.0-B] | ≥ 90 nM | ≥ 7 nM
– | – | – | O=C(CC1CCN(C(=O)c2cc[n+]([O-])cc2)CC1)N1CCC([C@H]2c3ncc(Br)cc3CCc3cc(Cl)cc(Br)c32)CC1 [Compound 45.0-B] | ≥ 90 nM | ≥ 7 nM
– | – | – | O=C(CC1CCN(C(=O)c2ccc[n+]([O-])c2)CC1)N1CCC([C@H]2c3ncc(Br)cc3CCc3cc(Cl)cc(Br)c32)CC1 [Compound 46.0-B] | ≥ 90 nM | ≥ 7 nM
– | – | – | O=C(CC1CCN(C(=O)c2ccc(O)nc2)CC1)N1CCC([C@H]2c3ncc(Br)cc3CCc3cc(Cl)cc(Br)c32)CC1 [Compound 47.0-B] | ≥ 90 nM | ≥ 7 nM
– | – | – | O=C(CC1CCN(C(=O)c2cccnc2O)CC1)N1CCC([C@H]2c3ncc(Br)cc3CCc3cc(Cl)cc(Br)c32)CC1 [Compound 48.0-B] | ≥ 90 nM | ≥ 7 nM
– | – | – | CC(=O)OC1CCC(C(=O)N2CCC(CC(=O)N3CCC(C4c5ncc(Br)cc5CCc5cc(Cl)cc(Br)c54)CC3)CC2)CC1 (stereo not drawn) [Compound 66.0-B] | ≥ 90 nM | ≥ 7 nM
– | – | – | O=C1C[C@@H](C(=O)N2CCC(CC(=O)N3CCC([C@H]4c5ncc(Br)cc5CCc5cc(Cl)cc(Br)c54)CC3)CC2)NC(=O)N1 [Compound 78.0-B] | ≥ 90 nM | ≥ 7 nM
– | – | – | O=C(CC1CCN(C(=O)[C@@H]2CSCN2)CC1)N1CCC([C@H]2c3ncc(Br)cc3CCc3cc(Cl)cc(Br)c32)CC1 [Compound 80.0-B] | ≥ 90 nM | –
– | – | – | O=C(CC1CCN(C(=O)c2ncccc2O)CC1)N1CCC([C@H]2c3ncc(Br)cc3CCc3cc(Cl)cc(Br)c32)CC1 [Compound 83.0-B] | ≥ 90 nM | ≥ 7 nM
– | – | – | O=C(CC1CCN(C(=O)c2ccoc2)CC1)N1CCC([C@H]2c3ncc(Br)cc3CCc3cc(Cl)cc(Br)c32)CC1 [Compound 84.0-B] | ≥ 90 nM | ≥ 7 nM
– | – | – | O=C(CC1CCN(C(=O)N2CCOCC2)CC1)N1CCC([C@H]2c3ncc(Br)cc3CCc3cc(Cl)cc(Br)c32)CC1 [Compound 100.0-B] | ≥ 90 nM | ≥ 7 nM

Structure (SMILES) | IC50 [1, 3] | IC50 [1, 4] | IC50 [2] | IC50 (Human tumor cells) | IC50 (COS Cell)
N#CN1CCC(CC(=O)N2CCN(C3c4ccc(Cl)cc4CCc4cc(Br)cnc43)CC2)CC1 (stereo not drawn) [Compound 5.0] | ≥ 0.8 nM | – | – | – | –
NC(=NO)N1CCC(CC(=O)N2CCN(C3c4ccc(Cl)cc4CCc4cc(Br)cnc43)CC2)CC1 (stereo not drawn) [Compound 12.0, 4-[2-[4-(3-BROMO-8-CHLORO-6,11-DIHYDRO-5H-BENZO[5,6]CYCLOHEPTA[1,2-b]PYRIDIN-11-YL)-1-PIPERAZINYL]-2-OXOETHYL]-N-HYDROXY-1-PIPERIDINECARBOXIMIDATE] | ≥ 0.8 nM | – | – | – | –
CON=C(N)N1CCC(CC(=O)N2CCN(C3c4ccc(Cl)cc4CCc4cc(Br)cnc43)CC2)CC1 (stereo not drawn) [Compound 13.0, 4-[2-[4-(3-BROMO-8-CHLORO-6,11-DIHYDRO-5H-BENZO[5,6]CYCLOHEPTA[1,2-b]PYRIDIN-11-YL)-1-PIPERAZINYL]-2-OXOETHYL]-N-METHOXY-1-PIPERIDINE-CARBOXIMIDATE] | ≥ 0.8 nM | – | – | – | –
N#CN1CCC(CC(=O)N2CCC([C@H]3c4ncc(Br)cc4CCc4cc(Cl)cc(Br)c43)CC2)CC1 [Compound 29.0] | ≥ 0.8 nM | – | – | – | ≥ 12 nM
